Measurements published in PubChem BioAssay (NCI).
“And” between values parts separate entries of the source, which are not always exact repeats. Equal values may be shown once.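 Five compound concentrations were applied to cells in 96-well plates for 48 hours; endpoints were derived by simple linear interpolation of the resulting dose-response curve. Here, GI50 denotes the concentration required for 50% inhibition of growth. TGI: concentration producing complete growth inhibition.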 Where a SMILES comes first, the peptide text is derived from it. The star is where a group is joined. Cbz = O=C(OCc1ccccc1)*

System: M14 melanoma
Assay: DTP human tumour cell line panel, 48 h

Point of comparison: Cc1ccnc2c1C(=O)C1=C(OC(C)(C)CC1O)C2=O (centres undefined), TGI 9.97 µM. Against it:
- CC(=O)c1ccc2c(c1)C(=O)c1sc(C(C)=O)cc1C2=O — 4.5-fold lower, 2.21 µM
- O=[N+]([O-])c1c(F)c(F)c2c(c1F)N(CCCCCl)c1ccccc1S2 — 1.8-fold higher, 18.2 µM
- CN1CCc2c(sc3[nH]c(=S)[nH]c(=S)c23)C1 — higher, > 100 µM
- CC(=O)OC(CCC1(C)OC1COc1ccc(CCNC(=O)C=C(C)C)cc1)C(C)(C)OC(C)=O (centres undefined) — higher, > 57.6 µM
- CC(=O)Nc1c(C(=N)C#N)ncn1CCO — higher, > 100 µM
- CN1CCCOC(c2ccc(Cl)cc2)O1 (centres undefined) — higher, > 100 µM
- Cc1c2ccc3ccccc3c2c[n+]2ccccc12 — 3.8-fold higher, 37.5 µM
- O=C1/C(=C\c2cccc(Oc3ccccc3)c2)S(=O)(=O)C(c2ccccc2)N1c1cccc(Cl)c1 (centres undefined) — higher, > 100 µM
- CCOC(=O)CCC1(CCC(=O)OCC)CCCCCCCCC(CCC(=O)OCC)(CCC(=O)OCC)C(=O)C1=O — higher, > 100 µM
- Cc1ccc2c(c1)CC1(Cc3cccc(C)c3C1=O)C2=O (centres undefined) — higher, > 100 µM
- O=C(Cn1c2ccc(Br)cc2c2nc3ccccc3nc21)NNC(=S)NC1CCCCC1 — 2.4-fold higher, 24.2 µM

System: MDA-N
Assay: DTP human tumour cell line panel, 48 h

Point of comparison: CC(=O)OC(CCC1(C)OC1COc1ccc(CCNC(=O)C=C(C)C)cc1)C(C)(C)OC(C)=O (centres undefined), TGI 51.9 µM. Against it:
- O=c1[nH]c2nc3ccccc3c(=O)n2/c1=C/c1cccs1 — higher, > 100 µM
- O=C1c2c(Br)sc(Br)c2C(=O)C1(O)O — higher, > 100 µM
- O=C1CCSCCC(=O)Nc2ccccc2N1 — higher, > 100 µM
- CC(=O)SC(C[N+](=O)[O-])c1ccc2c(c1)OCO2 (centres undefined) — 11-fold lower, 4.64 µM
- Cc1ccc(CSC(N)=Nc2ccccc2)cc1C — within 1.5-fold, 43.8 µM
- C=C1CCCCCCCCC/C=C/1SCCCSC — higher, > 100 µM
- CCOc1cc(NC(C)=O)ccc1C(=O)NNS(=O)(=O)c1ccc(NC(C)=O)cc1 — within 1.5-fold, 39.2 µM
- NCCCN(CCCN)CCc1cn(C(=O)c2ccccc2)cn1 — within 1.5-fold, 40.5 µM
- CC1(C)O[C@H]2OC(CO)C(N=[N+]=[N-])[C@H]2O1 (some centres undefined) — higher, > 100 µM
- CCOC(=O)CCC(NC(=O)C(Cc1ccccc1)NC(=O)OCc1ccccc1)C(=O)OCC (stereo not drawn) (Cbz-Phe-Glu(OEt)-OEt; configuration not given here) — 1.6-fold lower, 32.6 µM
- O=C1C(Br)=CC2(C=C1Br)CCNC1=C2C(=O)c2ncccc2C1=O — 150-fold lower, 0.353 µM
- CCCCC1Cc2cc(O)ccc2-c2nc3cc(O)ccc3n21 (centres undefined) (tested in a mixture with another compound) — within 1.5-fold, 36.3 µM
- CC(=O)c1c(N=[N+]=[N-])c2cccc3c2n(c1=O)CCC3 — within 1.5-fold, 44.5 µM
- CCCCCCCCCCCC(=O)OC[C@@H](C[As](=O)(O)O)OC(=O)CCCCCCCCCCC — 3.5-fold lower, 15 µM
- COc1ccc(C2c3cc4c(cc3OC(N3CCOCC3)C2C)OCO4)cc1 (centres undefined) — higher, > 82 µM
- O=[N+]([O-])c1c(F)c(F)c2c(c1F)N(CCCCCl)c1ccccc1S2 — 1.8-fold lower, 28.9 µM
- Cc1ccnc2c1C(=O)C1=C(OC(C)(C)CC1O)C2=O (centres undefined) — 18-fold lower, 2.9 µM
- CN1CCc2c(sc3[nH]c(=S)[nH]c(=S)c23)C1 — higher, > 100 µM
- CC(=O)Nc1c(C(=N)C#N)ncn1CCO — higher, > 100 µM
- CN1CCCOC(c2ccc(Cl)cc2)O1 (centres undefined) — higher, > 100 µM
- Cc1c2ccc3ccccc3c2c[n+]2ccccc12 — 2.6-fold lower, 19.8 µM
- O=C1/C(=C\c2cccc(Oc3ccccc3)c2)S(=O)(=O)C(c2ccccc2)N1c1cccc(Cl)c1 (centres undefined) — higher, > 100 µM
- CCOC(=O)CCC1(CCC(=O)OCC)CCCCCCCCC(CCC(=O)OCC)(CCC(=O)OCC)C(=O)C1=O — higher, > 100 µM
- Cc1ccc2c(c1)CC1(Cc3cccc(C)c3C1=O)C2=O (centres undefined) — not separable, > 10 µM
- O=C(Cn1c2ccc(Br)cc2c2nc3ccccc3nc21)NNC(=S)NC1CCCCC1 — 1.7-fold lower, 30.4 µM

Compound CC(=O)c1ccc2c(c1)C(=O)c1sc(C(C)=O)cc1C2=O has a GI50 of 0.316 µM.

CC(=O)c1ccc2c(c1)C(=O)c1sc(C(C)=O)cc1C2=O was tested, and the TGI was 2.02 µM and 3.38 µM.

System: NCI-H522 lung
Assay: DTP human tumour cell line panel, 48 h

Point of comparison: CC(=O)c1c(N=[N+]=[N-])c2cccc3c2n(c1=O)CCC3, TGI 28.1 µM. Against it:
- O=c1[nH]c2nc3ccccc3c(=O)n2/c1=C/c1cccs1 — higher, > 100 µM
- O=C1c2c(Br)sc(Br)c2C(=O)C1(O)O — within 1.5-fold, 37.3 µM
- O=C1CCSCCC(=O)Nc2ccccc2N1 — higher, > 100 µM
- CC(=O)SC(C[N+](=O)[O-])c1ccc2c(c1)OCO2 (centres undefined) — 2.7-fold lower, 10.4 µM
- Cc1ccc(CSC(N)=Nc2ccccc2)cc1C — within 1.5-fold, 35.4 µM
- C=C1CCCCCCCCC/C=C/1SCCCSC — higher, > 100 µM
- CCOc1cc(NC(C)=O)ccc1C(=O)NNS(=O)(=O)c1ccc(NC(C)=O)cc1 — higher, > 100 µM
- NCCCN(CCCN)CCc1cn(C(=O)c2ccccc2)cn1 — 2.3-fold higher, 64.9 µM
- CC1(C)O[C@H]2OC(CO)C(N=[N+]=[N-])[C@H]2O1 (some centres undefined) — higher, > 100 µM
- CCOC(=O)CCC(NC(=O)C(Cc1ccccc1)NC(=O)OCc1ccccc1)C(=O)OCC (stereo not drawn) (Cbz-Phe-Glu(OEt)-OEt; configuration not given here) — within 1.5-fold, 29.6 µM
- O=C1C(Br)=CC2(C=C1Br)CCNC1=C2C(=O)c2ncccc2C1=O — 27-fold lower, 1.06 µM
- CCCCC1Cc2cc(O)ccc2-c2nc3cc(O)ccc3n21 (centres undefined) (tested in a mixture with another compound) — within 1.5-fold, 25 µM
- CCCCCCCCCCCC(=O)OC[C@@H](C[As](=O)(O)O)OC(=O)CCCCCCCCCCC — 4.3-fold lower, 6.5 µM
- COc1ccc(C2c3cc4c(cc3OC(N3CCOCC3)C2C)OCO4)cc1 (centres undefined) — higher, > 82 µM
- O=[N+]([O-])c1c(F)c(F)c2c(c1F)N(CCCCCl)c1ccccc1S2 — 2.3-fold lower, 12.3 µM
- Cc1ccnc2c1C(=O)C1=C(OC(C)(C)CC1O)C2=O (centres undefined) — 2.5-fold lower, 11.1 µM
- CN1CCc2c(sc3[nH]c(=S)[nH]c(=S)c23)C1 — higher, > 100 µM
- CC(=O)OC(CCC1(C)OC1COc1ccc(CCNC(=O)C=C(C)C)cc1)C(C)(C)OC(C)=O (centres undefined) — higher, > 100 µM
- CC(=O)Nc1c(C(=N)C#N)ncn1CCO — higher, > 100 µM
- CN1CCCOC(c2ccc(Cl)cc2)O1 (centres undefined) — higher, > 100 µM
- Cc1c2ccc3ccccc3c2c[n+]2ccccc12 — 1.9-fold lower, 14.7 µM
- O=C1/C(=C\c2cccc(Oc3ccccc3)c2)S(=O)(=O)C(c2ccccc2)N1c1cccc(Cl)c1 (centres undefined) — higher, > 100 µM
- CCOC(=O)CCC1(CCC(=O)OCC)CCCCCCCCC(CCC(=O)OCC)(CCC(=O)OCC)C(=O)C1=O — higher, > 100 µM
- Cc1ccc2c(c1)CC1(Cc3cccc(C)c3C1=O)C2=O (centres undefined) — higher, > 100 µM
- O=C(Cn1c2ccc(Br)cc2c2nc3ccccc3nc21)NNC(=S)NC1CCCCC1 — within 1.5-fold, 27.6 µM

CC(=O)c1ccc2c(c1)C(=O)c1sc(C(C)=O)cc1C2=O was tested, and the GI50 was 0.222 µM.

CC(=O)c1ccc2c(c1)C(=O)c1sc(C(C)=O)cc1C2=O was tested, and the TGI was 1.7 µM and 0.585 µM.

System: OVCAR-8 ovarian
Assay: DTP human tumour cell line panel, 48 h

Point of comparison: CCOC(=O)CCC(NC(=O)C(Cc1ccccc1)NC(=O)OCc1ccccc1)C(=O)OCC (stereo not drawn) (Cbz-Phe-Glu(OEt)-OEt; configuration not given here), TGI 36.2 µM. Against it:
- O=c1[nH]c2nc3ccccc3c(=O)n2/c1=C/c1cccs1 — higher, > 100 µM
- O=C1c2c(Br)sc(Br)c2C(=O)C1(O)O — higher, > 100 µM
- O=C1CCSCCC(=O)Nc2ccccc2N1 — higher, > 100 µM
- CC(=O)SC(C[N+](=O)[O-])c1ccc2c(c1)OCO2 (centres undefined) — within 1.5-fold, 28.1 µM
- Cc1ccc(CSC(N)=Nc2ccccc2)cc1C — within 1.5-fold, 45.9 µM
- C=C1CCCCCCCCC/C=C/1SCCCSC — higher, > 100 µM
- CCOc1cc(NC(C)=O)ccc1C(=O)NNS(=O)(=O)c1ccc(NC(C)=O)cc1 — higher, > 100 µM
- NCCCN(CCCN)CCc1cn(C(=O)c2ccccc2)cn1 — 1.6-fold higher, 56.3 µM
- CC1(C)O[C@H]2OC(CO)C(N=[N+]=[N-])[C@H]2O1 (some centres undefined) — higher, > 100 µM
- O=C1C(Br)=CC2(C=C1Br)CCNC1=C2C(=O)c2ncccc2C1=O — 8-fold lower, 4.5 µM
- CCCCC1Cc2cc(O)ccc2-c2nc3cc(O)ccc3n21 (centres undefined) (tested in a mixture with another compound) — 1.9-fold higher, 68.8 µM
- CC(=O)c1c(N=[N+]=[N-])c2cccc3c2n(c1=O)CCC3 — 2.2-fold lower, 16.1 µM
- CCCCCCCCCCCC(=O)OC[C@@H](C[As](=O)(O)O)OC(=O)CCCCCCCCCCC — 1.5-fold lower, 23.6 µM
- COc1ccc(C2c3cc4c(cc3OC(N3CCOCC3)C2C)OCO4)cc1 (centres undefined) — higher, > 100 µM
- O=[N+]([O-])c1c(F)c(F)c2c(c1F)N(CCCCCl)c1ccccc1S2 — 3.2-fold lower, 11.3 µM
- Cc1ccnc2c1C(=O)C1=C(OC(C)(C)CC1O)C2=O (centres undefined) — 3.1-fold lower, 11.8 µM
- CN1CCc2c(sc3[nH]c(=S)[nH]c(=S)c23)C1 — higher, > 100 µM
- CC(=O)OC(CCC1(C)OC1COc1ccc(CCNC(=O)C=C(C)C)cc1)C(C)(C)OC(C)=O (centres undefined) — higher, > 100 µM

CC(=O)c1ccc2c(c1)C(=O)c1sc(C(C)=O)cc1C2=O showed a GI50 of 0.587 µM.

In the case of CC(=O)c1ccc2c(c1)C(=O)c1sc(C(C)=O)cc1C2=O, the TGI is reported as 1.69 µM and 2.67 µM.
